In ChEMBL document CHEMBL3046559, “Sterile oat (Avena sterilis L.) cross-resistance profile to ACCase-inhibiting herbicides in Greece” (2012):

Legend:
Type in all cases: functional
Avena sterilis [1] = test: Herbicidal activity against Avena sterilis accession P13S assessed as weed survival at 1/16 times field recommended herbicide dose
Avena sterilis [2] = test: Herbicidal activity against Avena sterilis accession P06S assessed as weed survival at 1 times field recommended herbicide dose
Avena sterilis [3] = test: Herbicidal activity against Avena sterilis accession P21S assessed as weed survival at 1/4 times field recommended herbicide dose
Avena sterilis [4] = test: Herbicidal activity against Avena sterilis accession P18 assessed as weed survival at 32 times field recommended herbicide dose
Avena sterilis [5] = test: Herbicidal activity against Avena sterilis accession P08 assessed as weed survival at 16 times field recommended herbicide dose
Avena sterilis [6] = test: Herbicidal activity against Avena sterilis accession P21S assessed as weed survival at 1 times field recommended herbicide dose
Avena sterilis [7] = test: Herbicidal activity against Avena sterilis accession P12 assessed as induction of weed mortality
Avena sterilis [8] = test: Herbicidal activity against Avena sterilis accession P11 assessed as weed survival at 4 times field recommended herbicide dose
Avena sterilis [9] = test: Herbicidal activity against Avena sterilis accession P17 assessed as induction of weed mortality
Avena sterilis [10] = test: Herbicidal activity against Avena sterilis accession P21S assessed as weed survival at 1/16 times field recommended herbicide dose
Avena sterilis [11] = test: Herbicidal activity against Avena sterilis accession P05 assessed as induction of weed mortality
Avena sterilis [12] = test: Herbicidal activity against Avena sterilis accession P03 assessed as weed survival at 1 times field recommended herbicide dose
Avena sterilis [13] = test: Herbicidal activity against Avena sterilis accession P18 assessed as weed survival at 8 times field recommended herbicide dose
Avena sterilis [14] = test: Herbicidal activity against Avena sterilis accession P09 assessed as weed survival at 32 times field recommended herbicide dose
Avena sterilis [15] = test: Herbicidal activity against Avena sterilis accession P02 assessed as weed survival at 16 times field recommended herbicide dose
Avena sterilis [16] = test: Herbicidal activity against Avena sterilis accession P05 assessed as weed survival at 32 times field recommended herbicide dose
Avena sterilis [17] = test: Herbicidal activity against Avena sterilis accession P04 assessed as weed survival at 4 times field recommended herbicide dose
Avena sterilis [18] = test: Herbicidal activity against Avena sterilis accession P09 assessed as weed survival at 16 times field recommended herbicide dose
Avena sterilis [19] = test: Herbicidal activity against Avena sterilis accession P18 assessed as induction of weed mortality
Avena sterilis [20] = test: Herbicidal activity against Avena sterilis accession P17 assessed as weed survival at 32 times field recommended herbicide dose
Avena sterilis [21] = test: Herbicidal activity against Avena sterilis accession P15 assessed as induction of weed mortality
Avena sterilis [22] = test: Herbicidal activity against Avena sterilis accession P01 assessed as weed survival at 8 times field recommended herbicide dose
Avena sterilis [23] = test: Herbicidal activity against Avena sterilis accession P11 assessed as weed survival at 8 times field recommended herbicide dose
Avena sterilis [24] = test: Herbicidal activity against Avena sterilis accession P02 assessed as weed survival at 32 times field recommended herbicide dose
Avena sterilis [25] = test: Herbicidal activity against Avena sterilis accession P02 assessed as weed survival at 4 times field recommended herbicide dose
Avena sterilis [26] = test: Herbicidal activity against Avena sterilis accession P14 assessed as weed survival at 32 times field recommended herbicide dose
Avena sterilis [27] = test: Herbicidal activity against Avena sterilis accession P17 assessed as weed survival at 1 times field recommended herbicide dose
Avena sterilis [28] = test: Herbicidal activity against Avena sterilis accession P20 assessed as weed survival at 1 times field recommended herbicide dose
Avena sterilis [29] = test: Herbicidal activity against Avena sterilis accession P09 assessed as weed survival at 8 times field recommended herbicide dose
Avena sterilis [30] = test: Herbicidal activity against Avena sterilis accession P06S assessed as weed survival at 1/8 times field recommended herbicide dose
Avena sterilis [31] = test: Herbicidal activity against Avena sterilis accession P11 assessed as weed survival at 32 times field recommended herbicide dose
Avena sterilis [32] = test: Herbicidal activity against Avena sterilis accession P08 assessed as weed survival at 1 times field recommended herbicide dose
Avena sterilis [33] = test: Herbicidal activity against Avena sterilis accession P03 assessed as weed survival at 32 times field recommended herbicide dose
Avena sterilis [34] = test: Herbicidal activity against Avena sterilis accession P15 assessed as weed survival at 4 times field recommended herbicide dose
Avena sterilis [35] = test: Herbicidal activity against Avena sterilis accession P12 assessed as weed survival at 1 times field recommended herbicide dose
Avena sterilis [36] = test: Herbicidal activity against Avena sterilis accession P13S assessed as weed survival at 1 times field recommended herbicide dose
Avena sterilis [37] = test: Herbicidal activity against Avena sterilis accession P15 assessed as weed survival at 1 times field recommended herbicide dose
Avena sterilis [38] = test: Herbicidal activity against Avena sterilis accession P22 assessed as weed survival at 4 times field recommended herbicide dose
Avena sterilis [39] = test: Herbicidal activity against Avena sterilis accession P04 assessed as induction of weed mortality
Avena sterilis [40] = test: Herbicidal activity against Avena sterilis accession P20 assessed as weed survival at 32 times field recommended herbicide dose
Avena sterilis [41] = test: Herbicidal activity against Avena sterilis accession P07 assessed as weed survival at 4 times field recommended herbicide dose
Avena sterilis [42] = test: Herbicidal activity against Avena sterilis accession P10S assessed as weed survival at 1/8 times field recommended herbicide dose
Avena sterilis [43] = test: Herbicidal activity against Avena sterilis accession P03 assessed as induction of weed mortality
Avena sterilis [44] = test: Herbicidal activity against Avena sterilis accession P20 assessed as induction of weed mortality
Avena sterilis [45] = test: Herbicidal activity against Avena sterilis accession P07 assessed as induction of weed mortality
Avena sterilis [46] = test: Herbicidal activity against Avena sterilis accession P09 assessed as weed survival at 1 times field recommended herbicide dose
Avena sterilis [47] = test: Herbicidal activity against Avena sterilis accession P07 assessed as weed survival at 16 times field recommended herbicide dose
Avena sterilis [48] = test: Herbicidal activity against Avena sterilis accession P15 assessed as weed survival at 16 times field recommended herbicide dose
Avena sterilis [49] = test: Herbicidal activity against Avena sterilis accession P02 assessed as weed survival at 8 times field recommended herbicide dose
Avena sterilis [50] = test: Herbicidal activity against Avena sterilis accession P05 assessed as weed survival at 8 times field recommended herbicide dose
Avena sterilis [51] = test: Herbicidal activity against Avena sterilis accession P11 assessed as induction of weed mortality
Avena sterilis [52] = test: Herbicidal activity against Avena sterilis accession P18 assessed as weed survival at 16 times field recommended herbicide dose
Avena sterilis [53] = test: Herbicidal activity against Avena sterilis accession P12 assessed as weed survival at 16 times field recommended herbicide dose
Avena sterilis [54] = test: Herbicidal activity against Avena sterilis accession P17 assessed as weed survival at 4 times field recommended herbicide dose
Avena sterilis [55] = test: Herbicidal activity against Avena sterilis accession P03 assessed as weed survival at 16 times field recommended herbicide dose
Avena sterilis [56] = test: Herbicidal activity against Avena sterilis accession P21S assessed as weed survival at 1/8 times field recommended herbicide dose
Avena sterilis [57] = test: Herbicidal activity against Avena sterilis accession P10S assessed as weed survival at 1 times field recommended herbicide dose
Avena sterilis [58] = test: Herbicidal activity against Avena sterilis accession P13S assessed as induction of weed mortality

`C#CCOC(=O)[C@@H](C)Oc1ccc(Oc2ncc(Cl)cc2F)cc1` [CLODINAFOP PROPARGYL] was tested, and the Survival (Avena sterilis [1]) was 70%, the Survival (Avena sterilis [2]) was 0% and the Survival (Avena sterilis [3]) was 60%. It also gave a Survival (Avena sterilis [4]) of 20%, a Survival (Avena sterilis [5]) of 73% and a Survival (Avena sterilis [6]) of 0%. The GR50 (Avena sterilis [7]) was over 1312 gAi/ha, the Survival (Avena sterilis [8]) was 97% and the GR50 (Avena sterilis [9]) was 283 gAi/ha. The Survival (Avena sterilis [10]) was 90%, the GR50 (Avena sterilis [11]) was 180 gAi/ha and the Survival (Avena sterilis [12]) was 100%. The Survival (Avena sterilis [13]) was 73%, the Survival (Avena sterilis [14]) was 0% and the Survival (Avena sterilis [15]) was 93%. The Survival (Avena sterilis [16]) was 0%, the Survival (Avena sterilis [17]) was 100% and the Survival (Avena sterilis [18]) was 0%. For the same molecule, the GR50 (Avena sterilis [19]) was 520 gAi/ha, the Survival (Avena sterilis [20]) was 20% and the GR50 (Avena sterilis [21]) was over 1312 gAi/ha. It also gave a Survival (Avena sterilis [22]) of 80%, a Survival (Avena sterilis [23]) of 100% and a Survival (Avena sterilis [24]) of 87%. It also gave a Survival (Avena sterilis [25]) of 100%, a Survival (Avena sterilis [26]) of 43% and a Survival (Avena sterilis [27]) of 97%. The Survival (Avena sterilis [28]) was 93%, the Survival (Avena sterilis [29]) was 0% and the Survival (Avena sterilis [30]) was 80%. For the same molecule, the Survival (Avena sterilis [31]) was 93%, the Survival (Avena sterilis [32]) was 100% and the Survival (Avena sterilis [33]) was 73%. The Survival (Avena sterilis [34]) was 100%, the Survival (Avena sterilis [35]) was 100% and the Survival (Avena sterilis [36]) was 0%. The Survival (Avena sterilis [37]) was 100%, the Survival (Avena sterilis [38]) was 43% and the GR50 (Avena sterilis [39]) was over 1312 gAi/ha. The Survival (Avena sterilis [40]) was 27%, the Survival (Avena sterilis [41]) was 0% and the Survival (Avena sterilis [42]) was 77%. The GR50 (Avena sterilis [43]) was over 1312 gAi/ha, the GR50 (Avena sterilis [44]) was 508 gAi/ha and the GR50 (Avena sterilis [45]) was under 41 gAi/ha. It also gave a Survival (Avena sterilis [46]) of 63%, a Survival (Avena sterilis [47]) of 0% and a Survival (Avena sterilis [48]) of 97%. The Survival (Avena sterilis [49]) was 97%, the Survival (Avena sterilis [50]) was 40% and the GR50 (Avena sterilis [51]) was over 1312 gAi/ha. For the same molecule, the Survival (Avena sterilis [52]) was 40%, the Survival (Avena sterilis [53]) was 83% and the Survival (Avena sterilis [54]) was 67%. For the same molecule, the Survival (Avena sterilis [55]) was 87%, the Survival (Avena sterilis [56]) was 77% and the Survival (Avena sterilis [57]) was 0%. For the same molecule, the GR50 (Avena sterilis [58]) was 5 gAi/ha.
